Consider 14 compounds from patent publication US20250073255A1, “USE OF FA-TYPE LIPID COMPOUNDS IN PREPARATION OF NUCLEIC ACID DELIVERY REAGENT AND RELATED PRODUCT” (BEIJING BAISHIKANG PHARMACEUTICAL TECHNOLOGY (BSJPHARMA) …, priority 2021, published 2025).

For this test, the system named is C57BL/6 male mice. The test is described as follows: In vivo delivery study of lipid nucleic acid mixture (oral gavage, RT-qPCR of PGY-sRNA-26 in tissues). The arrangement: species or system mouse. Conditions: for overall delivery efficacy: delivering nucleic acids into each tissue and blood tested: 100 μg lipid:10 nmol PGY-sRNA-26, all tissues and blood tested; for oral delivery of single-stranded sRNA nucleic acids into mouse blood / oral delivery of single-stranded sRNA nucleic acids into mouse brain tissue / oral delivery of single-stranded sRNA nucleic acids into mouse femur / oral delivery of single-stranded sRNA nucleic acids into mouse heart tissue / oral delivery of single-stranded sRNA nucleic acids into mouse intestinal tissue / oral delivery of single-stranded sRNA nucleic acids into mouse kidney tissue / oral delivery of single-stranded sRNA nucleic acids into mouse liver tissue / oral delivery of single-stranded sRNA nucleic acids into mouse lung tissue / oral delivery of single-stranded sRNA nucleic acids into mouse spleen tissue / oral delivery of single-stranded sRNA nucleic acids into mouse stomach tissue: 100 μg lipid:10 nmol PGY-sRNA-26, sampled after 12 hours; for oral delivery of single-stranded sRNA nucleic acids into mouse heart tissue: vs free uptake group; for oral delivery of single-stranded sRNA nucleic acids into mouse intestinal tissue: intestine. In outline:
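Lipid (100 μg) and 10 nmol 3'-methylated single-stranded PGY-sRNA-26 were heated at 90 °C for 15 min, then given by oral gavage to mice fasted 12 h. Controls were saline and free sRNA. Blood and tissues were taken at 12 h, and levels were measured by stem-loop RT-qPCR relative to U6.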

Consider `CCCCCCCCC(C)=O` [Lipid 604, decan-2-one], for which the “overall delivery efficacy: delivering nucleic acids into each tissue and blood tested” value was “best delivery efficacy”; the “oral delivery of single-stranded sRNA nucleic acids into mouse blood” value is recorded as “can effectively orally deliver”; the “oral delivery of single-stranded sRNA nucleic acids into mouse brain tissue” value is “can effectively orally deliver”; the “oral delivery of single-stranded sRNA nucleic acids into mouse femur” value is “can effectively orally deliver”. Besides, the “oral delivery of single-stranded sRNA nucleic acids into mouse heart tissue” value is recorded as “can effectively orally deliver”, the “oral delivery of single-stranded sRNA nucleic acids into mouse intestinal tissue” value is reported as “can effectively orally deliver”, the “oral delivery of single-stranded sRNA nucleic acids into mouse kidney tissue” value is given as “can effectively orally deliver” and the “oral delivery of single-stranded sRNA nucleic acids into mouse liver tissue” value is “can effectively orally deliver”. Also, the “oral delivery of single-stranded sRNA nucleic acids into mouse lung tissue” value is reported as “can effectively orally deliver”, the “oral delivery of single-stranded sRNA nucleic acids into mouse spleen tissue” value is on record as “can effectively orally deliver” and the “oral delivery of single-stranded sRNA nucleic acids into mouse stomach tissue” value is “can effectively orally deliver”.

Regarding `CCCCCCCCCCCCCCC(=O)O` [Lipid 605, pentadecanoic acid], the “oral delivery of single-stranded sRNA nucleic acids into mouse blood” value is recorded as “can effectively orally deliver”, the “oral delivery of single-stranded sRNA nucleic acids into mouse femur” value is listed as “can effectively orally deliver” and the “oral delivery of single-stranded sRNA nucleic acids into mouse stomach tissue” value is “can effectively orally deliver”.

For `C/C(=C\C(=O)O)C(=O)O` [Lipid 606, (E)-2-methylbut-2-enedioic acid], the “oral delivery of single-stranded sRNA nucleic acids into mouse blood” value is on record as “can effectively orally deliver”, the “oral delivery of single-stranded sRNA nucleic acids into mouse femur” value is reported as “can effectively orally deliver” and the “oral delivery of single-stranded sRNA nucleic acids into mouse liver tissue” value is “can effectively orally deliver”.

For the compound `O=C(O)C/C=C/CC(=O)O` [Lipid 607, (E)-hex-3-enedioic acid], the “oral delivery of single-stranded sRNA nucleic acids into mouse blood” value is “can effectively orally deliver”, the “oral delivery of single-stranded sRNA nucleic acids into mouse femur” value is reported as “can effectively orally deliver”, the “oral delivery of single-stranded sRNA nucleic acids into mouse heart tissue” value is recorded as “can effectively orally deliver” and the “oral delivery of single-stranded sRNA nucleic acids into mouse kidney tissue” value was “can effectively orally deliver”. Further, the “oral delivery of single-stranded sRNA nucleic acids into mouse liver tissue” value is given as “can effectively orally deliver” and the “oral delivery of single-stranded sRNA nucleic acids into mouse stomach tissue” value is listed as “can effectively orally deliver”.

As for `CC(CC(=O)O)C(=O)O` (stereo not shown) [Lipid 608, 2-methylbutanedioic acid], the “oral delivery of single-stranded sRNA nucleic acids into mouse femur” value is reported as “can effectively orally deliver”, the “oral delivery of single-stranded sRNA nucleic acids into mouse heart tissue” value is listed as “can effectively orally deliver”, the “oral delivery of single-stranded sRNA nucleic acids into mouse lung tissue” value is listed as “can effectively orally deliver” and the “oral delivery of single-stranded sRNA nucleic acids into mouse spleen tissue” value was “can effectively orally deliver”. Also, the “oral delivery of single-stranded sRNA nucleic acids into mouse stomach tissue” value was “can effectively orally deliver”.

Regarding `CCCCCCCCCCCCCCCO` [Lipid 609, pentadecan-1-ol], the “oral delivery of single-stranded sRNA nucleic acids into mouse brain tissue” value is on record as “can effectively orally deliver”, the “oral delivery of single-stranded sRNA nucleic acids into mouse femur” value was “can effectively orally deliver”, the “oral delivery of single-stranded sRNA nucleic acids into mouse heart tissue” value is “can effectively orally deliver” and the “oral delivery of single-stranded sRNA nucleic acids into mouse kidney tissue” value is given as “can effectively orally deliver”. Besides, the “oral delivery of single-stranded sRNA nucleic acids into mouse liver tissue” value is given as “can effectively orally deliver”, the “oral delivery of single-stranded sRNA nucleic acids into mouse lung tissue” value was “can effectively orally deliver” and the “oral delivery of single-stranded sRNA nucleic acids into mouse stomach tissue” value is “can effectively orally deliver”.

For `CCCCC(N)=O` [Lipid 610], the “oral delivery of single-stranded sRNA nucleic acids into mouse femur” value was “can effectively orally deliver”, the “oral delivery of single-stranded sRNA nucleic acids into mouse kidney tissue” value was “can effectively orally deliver”, the “oral delivery of single-stranded sRNA nucleic acids into mouse lung tissue” value was “can effectively orally deliver” and the “oral delivery of single-stranded sRNA nucleic acids into mouse spleen tissue” value was “can effectively orally deliver”. The “oral delivery of single-stranded sRNA nucleic acids into mouse stomach tissue” value is listed as “can effectively orally deliver”.

Consider `CCCCCCCCCCCC(N)=O` [Lipid 611, dodecanamide], for which the “oral delivery of single-stranded sRNA nucleic acids into mouse femur” value is given as “can effectively orally deliver”, the “oral delivery of single-stranded sRNA nucleic acids into mouse spleen tissue” value is “can effectively orally deliver” and the “oral delivery of single-stranded sRNA nucleic acids into mouse stomach tissue” value was “can effectively orally deliver”.

As for `CC(=O)C1CCOC1=O` (stereo not shown) [Lipid 612, 3-acetyloxolan-2-one], the “oral delivery of single-stranded sRNA nucleic acids into mouse femur” value was “can effectively orally deliver”, the “oral delivery of single-stranded sRNA nucleic acids into mouse intestinal tissue” value is given as “can effectively orally deliver”, the “oral delivery of single-stranded sRNA nucleic acids into mouse liver tissue” value is listed as “can effectively orally deliver” and the “oral delivery of single-stranded sRNA nucleic acids into mouse stomach tissue” value is reported as “can effectively orally deliver”.

Consider `CCCCCC(=O)OCCCC` [Lipid 613, butyl hexanoate], for which the “overall delivery efficacy: delivering nucleic acids into each tissue and blood tested” value is “best delivery efficacy”; the “oral delivery of single-stranded sRNA nucleic acids into mouse blood” value was “can effectively orally deliver”; the “oral delivery of single-stranded sRNA nucleic acids into mouse brain tissue” value is reported as “can effectively orally deliver”; the “oral delivery of single-stranded sRNA nucleic acids into mouse femur” value is recorded as “can effectively orally deliver”. Also, the “oral delivery of single-stranded sRNA nucleic acids into mouse heart tissue” value is recorded as “can effectively orally deliver”, the “oral delivery of single-stranded sRNA nucleic acids into mouse intestinal tissue” value was “can effectively orally deliver”, the “oral delivery of single-stranded sRNA nucleic acids into mouse kidney tissue” value is given as “can effectively orally deliver” and the “oral delivery of single-stranded sRNA nucleic acids into mouse liver tissue” value is listed as “can effectively orally deliver”. Further, the “oral delivery of single-stranded sRNA nucleic acids into mouse lung tissue” value is “can effectively orally deliver”, the “oral delivery of single-stranded sRNA nucleic acids into mouse spleen tissue” value is listed as “can effectively orally deliver” and the “oral delivery of single-stranded sRNA nucleic acids into mouse stomach tissue” value is on record as “can effectively orally deliver”.

`CCCCCCOC(=O)CCC` [Lipid 614, hexyl butanoate]: the “oral delivery of single-stranded sRNA nucleic acids into mouse blood” value is listed as “can effectively orally deliver”, the “oral delivery of single-stranded sRNA nucleic acids into mouse brain tissue” value is “can effectively orally deliver”, the “oral delivery of single-stranded sRNA nucleic acids into mouse femur” value is listed as “can effectively orally deliver” and the “oral delivery of single-stranded sRNA nucleic acids into mouse heart tissue” value is “can effectively orally deliver”. Further, the “oral delivery of single-stranded sRNA nucleic acids into mouse intestinal tissue” value is given as “can effectively orally deliver”, the “oral delivery of single-stranded sRNA nucleic acids into mouse liver tissue” value is listed as “can effectively orally deliver”, the “oral delivery of single-stranded sRNA nucleic acids into mouse lung tissue” value is given as “can effectively orally deliver” and the “oral delivery of single-stranded sRNA nucleic acids into mouse spleen tissue” value is given as “can effectively orally deliver”.

With `CCCCCCCCCC=O` [Lipid 615], the “oral delivery of single-stranded sRNA nucleic acids into mouse blood” value was “can effectively orally deliver”, the “oral delivery of single-stranded sRNA nucleic acids into mouse brain tissue” value is on record as “can effectively orally deliver”, the “oral delivery of single-stranded sRNA nucleic acids into mouse femur” value is on record as “can effectively orally deliver” and the “oral delivery of single-stranded sRNA nucleic acids into mouse intestinal tissue” value is “can effectively orally deliver”. For the same compound, the “oral delivery of single-stranded sRNA nucleic acids into mouse liver tissue” value is reported as “can effectively orally deliver”, the “oral delivery of single-stranded sRNA nucleic acids into mouse lung tissue” value is listed as “can effectively orally deliver”, the “oral delivery of single-stranded sRNA nucleic acids into mouse spleen tissue” value was “can effectively orally deliver” and the “oral delivery of single-stranded sRNA nucleic acids into mouse stomach tissue” value is on record as “can effectively orally deliver”.

Consider `CCCCCC1C(=O)CCC1CC(=O)O` (stereo not shown) [Lipid 616, 2-(3-oxo-2-pentylcyclopentyl)-acetic acid], for which the “oral delivery of single-stranded sRNA nucleic acids into mouse blood” value is given as “can effectively orally deliver”, the “oral delivery of single-stranded sRNA nucleic acids into mouse brain tissue” value is “can effectively orally deliver”, the “oral delivery of single-stranded sRNA nucleic acids into mouse femur” value was “can effectively orally deliver” and the “oral delivery of single-stranded sRNA nucleic acids into mouse heart tissue” value is reported as “can effectively orally deliver”. The “oral delivery of single-stranded sRNA nucleic acids into mouse intestinal tissue” value is given as “can effectively orally deliver”, the “oral delivery of single-stranded sRNA nucleic acids into mouse liver tissue” value is recorded as “can effectively orally deliver”, the “oral delivery of single-stranded sRNA nucleic acids into mouse lung tissue” value was “can effectively orally deliver” and the “oral delivery of single-stranded sRNA nucleic acids into mouse spleen tissue” value was “can effectively orally deliver”.

For `CCCCCCCCCOC(C)=O` [Lipid 617, nonyl acetate], the “oral delivery of single-stranded sRNA nucleic acids into mouse blood” value is given as “can effectively orally deliver”, the “oral delivery of single-stranded sRNA nucleic acids into mouse brain tissue” value was “can effectively orally deliver”, the “oral delivery of single-stranded sRNA nucleic acids into mouse femur” value is reported as “can effectively orally deliver” and the “oral delivery of single-stranded sRNA nucleic acids into mouse intestinal tissue” value is “can effectively orally deliver”. The “oral delivery of single-stranded sRNA nucleic acids into mouse kidney tissue” value was “can effectively orally deliver”, the “oral delivery of single-stranded sRNA nucleic acids into mouse liver tissue” value is on record as “can effectively orally deliver”, the “oral delivery of single-stranded sRNA nucleic acids into mouse lung tissue” value was “can effectively orally deliver” and the “oral delivery of single-stranded sRNA nucleic acids into mouse spleen tissue” value is “can effectively orally deliver”. In addition, the “oral delivery of single-stranded sRNA nucleic acids into mouse stomach tissue” value is “can effectively orally deliver”.
